In patent US20040058948A1, “Mappicine analogs, methods of inhibiting retroviral reverse transcriptase and methods of treating retroviruses” (priority 2002, published 2004):
Where “and” joins values, the source holds several entries; their conditions need not be identical. Equal values may be shown once.

What was measured:
[1] = target: T1, RNA-dependent DNA polymerase activity of HIV reverse transcriptase (Human immunodeficiency virus type 1 group M subtype B, UniProt P04585); test: RNA-dependent DNA polymerase activity assay of HIV reverse transcriptase; format: biochemical, HIV-1; details: 10 μM inhibitor concentration, activity with analog / without analog x 100
T1 construct: made in house
Procedure: In separate, representative assays, mappicine analogs were tested for their ability to inhibit the RNA-dependent DNA polymerase activity of HIV reverse transcriptase and for their ability to inhibit the RNase H activity of HIV reverse transcriptase. The assay for RNA-dependent DNA polymerase activity is discussed in Borkow, G. et al., “Inhibition of the Ribonuclease H and DNA Polymerase Activities of HIV-1 Reverse Transcriptase by N-(4-tert-Butylbenzoyl)-2-hydroxy-1-naphthaldehyde Hydrazone,” Biochemistry 1997, 36, 3179-3185, a copy of which is attached hereto, and the disclosure of which is incorporated herein by reference. Assays were carried out in the absence and in the presence of mappicine analogs (10 μM final concentration). The results are reported as % residual activity, which is the RNA-dependent DNA polymerase activity of the enzyme in the presence of the mappicine analog divided by the RNA-dependent activity of the enzyme in the absence of the mappicine analog, multiplied by 100.

[2] = target: RNase H activity of HIV reverse transcriptase (Human immunodeficiency virus type 1 group M subtype B, UniProt P04585); test: Fluorescence (FRET)-based RNase H activity assay of HIV reverse transcriptase; format: biochemical, HIV-1; parameters: final concentration of 2.5 nM of the p51/p66 RT heterodimer in the assay; made in house; details: 10 μM inhibitor concentration, activity with analog / without analog x 100
Procedure: Recently, a fluorescence-based assay to perform preliminary screens in search of HIV RNase H inhibitors has been developed. The assay, which is carried out in 96-well microplates and is adaptable to robotics, is the first high-throughput screen for RNase H and is described in further detail in the Experimental section. HIV-1 RT and human RNase H were cloned, and thus comparative analysis of inhibitor action could be conducted simultaneously.
The assay for RNase H activity of HIV reverse transcriptase was the fluorescence-based assay described in detail in the Experimental section and discussed in U.S. Provisional Patent Application Serial No. 60/318,359. Assays were carried out in the absence and in the presence of mappicine analogs (10 μM final concentration). The results are reported as % residual activity, which is the RNase H activity of the enzyme in the presence of the mappicine analog divided by the RNase H activity of the enzyme in the absence of the mappicine analog, multiplied by 100. Alternatively, the results are reported as % inhibition, which is calculated as the ratio of the RNase H activity of the enzyme in the presence of the mappicine analog to the enzyme activity in the absence of the mappicine analog, multiplied by 100, and then subtracting this number from 100.
Assay for Ribonuclease H Activity Based on Fluorescence Resonance Energy Transfer (FRET)
Preparation of the Fluorophore-RNA/Quencher-DNA Hybrid Duplex Substrate.
The RNA/DNA hybrid duplex substrate for use in the assay comprises an RNA oligonucleotide of sequence 5′-GAU CUG AGC CUG GGA GCU-3′, modified at the 3′-end with Aminolink-2 and derivatized with fluorescein isothiocyanate, to provide a modified RNA oligonucleotide of the sequence 5′-GAU CUG AGC CUG GGA GCU-fluorescein-3′, annealed to a complementary DNA oligonucleotide of the sequence 5′-AGC TCC CAG GCT CAG ATC-3′ modified at the 5′-end with Aminolink-2 and derivatized with the FRET acceptor DABCYL succinimidyl ester, to provide a modified DNA oligonucleotide of the sequence 5′-DABCYL-AGC TCC CAG GCT CAG ATC-3′.
To prepare the 3′-fluorescein-RNA/5′-DABCYL-DNA hybrid duplex substrate, a known amount of 3′-fluorescein-RNA was dissolved in 20 mM Tris buffer (pH 8.0, 37° C.) to provide a final concentration of 5 μM. Two equivalents of the 5′-DABCYL-DNA oligonucleotide were added, and the mixture was heated to 90° C. for 5 min and cooled slowly to room temperature to allow duplex formation. The positioning of the fluorescein donor at the 3′-end of the RNA oligonucleotide and the DABCYL acceptor at the 5′-end of the DNA oligonucleotide provides a very close proximity of the donor and acceptor that results in a very intense quenching of the fluorescein emission in the intact RNA/DNA hybrid duplex substrate due to the spectral overlap of the fluorescence emission of fluorescein with the absorption spectrum of DABCYL. In addition, DABCYL is non-fluorescent, and thus cannot contribute any light emission. Both of these factors result in a very low background and provide a high signal-to-noise in the assay measurements. The ratio of the donor fluorescence in the absence and in the presence of its quencher is approximately fifteen-fold.
Microplate Assay Protocol for the Measurement of RNase H Activity Using the RNA/DNA Hybrid Duplex Substrate.
Reaction assay mixtures contained 5 μl of a stock solution of 2.5 μM RNA/DNA hybrid duplex substrate added to 85 μl of assay buffer (50 mM Tris, pH 8.0, 37° C., containing 60 mM KCl and 2.5 mM MgCl2), prepared in the wells of a 96-well fluorescence microtiter plate, and warmed to 37° C. using the temperature control of the SpectraMax Gemini XS microplate spectrofluorometer (Molecular Devices). Reactions were started by the addition of 5 μl of a solution of recombinant HIV-1 reverse transcriptase (usually providing a final concentration of 2.5 nM of the p51/p66 RT heterodimer in the assay), and mixing using the automatic mixing function of the microplate spectrofluorometer. […]

Row | Compound | Residual activity (%) Polymerase [1] [%] | Residual activity (%) RNase H [2] [%] | Residual activity (%) Polymerase ([1]; 10 µM) | Residual activity (%) RNase H ([2]; 10 µM)
1 | Cc1c(C(O)CCC2CCCCC2)cc2n(c1=O)Cc1c-2nc2ccc(F)cc2c1[Si](C)(C)C (racemic) [5Bδ] | 78 | 103 |  | 
2 | CCC(O)c1cc2n(c(=O)c1C)Cc1c-2nc2ccc(C)cc2c1-c1ccccc1 (racemic) [3Cα] | 64 | 96 |  | 
3 | CCC(O)c1cc2n(c(=O)c1C)Cc1c-2nc2ccc(F)cc2c1-c1ccccc1 (racemic) [3Bα] | 54 | 83 |  | 
4 | Cc1ccc2nc3c(c([Si](C)(C)C)c2c1)Cn1c-3cc(C(O)CCC2CCCCC2)c(C)c1=O (racemic) [5Cδ] | 41 | 103 |  | 
5 | Cc1ccc2nc3c(c([Si](C)(C)C)c2c1)Cn1c-3cc(C(O)Cc2ccccc2)c(C)c1=O (racemic) [5Cε] | 87 | 93 |  | 
6 | Cc1ccc2nc3c(c([Si](C)(C)C(C)(C)C)c2c1)Cn1c-3cc(C(=O)CCC2CCCCC2)c(C)c1=O [4Cδκ] | 52 | 96 |  | 
7 | CCCCCCc1c2c(nc3ccc(F)cc13)-c1cc(C(O)CC)c(C)c(=O)n1C2 (stereo not drawn) [8Bα] | 57 | 80 |  | 
8 | COc1ccc2nc3c(c([Si](C)(C)C)c2c1)Cn1c-3cc(C(=O)C(C)(C)C)c(C)c1=O [5Dβκ] | 64 | 86 |  | 
9 | Cc1ccc2nc3c(c([Si](C)(C)C(C)(C)C)c2c1)Cn1c-3cc(C(=O)C(C)(C)C)c(C)c1=O [4Cβκ] | 67 | 65 |  | 
10 | COc1ccc2nc3c(c([Si](C)(C)C)c2c1)Cn1c-3cc(C(O)CCC2CCCCC2)c(C)c1=O (stereo not drawn) [5Dδ] | 57 | 96 |  | 
11 | Cc1c(C(O)Cc2ccccc2)cc2n(c1=O)Cc1c-2nc2ccc(F)cc2c1[Si](C)(C)C (stereo not drawn) [5Bε] | 49 | 88 |  | 
12 | CCC(O)c1cc2n(c(=O)c1C)Cc1c-2nc2ccc(C)cc2c1[Si](C)(C)C(C)(C)C (stereo not drawn) [4Cα] | 94 | 91 |  | 
13 | Cc1c(C(=O)C(C)(C)C)cc2n(c1=O)Cc1c-2nc2ccccc2c1[Si](C)(C)C [5Aβκ] | 47 | 97 |  | 
14 | CCC(=O)c1cc2n(c(=O)c1C)Cc1c-2nc2ccc(F)cc2c1-c1ccccc1 [3Bακ] | 100 | 94 |  | 
15 | CCCCCCc1c2c(nc3ccc(F)cc13)-c1cc(C(O)CCC3CCCCC3)c(C)c(=O)n1C2 (stereo not drawn) [8Bδ] | 90 | 112 |  | 
16 | Cc1c(C(=O)CCC2CCCCC2)cc2n(c1=O)Cc1c-2nc2ccccc2c1-c1ccccc1 [3Aδκ] | 66 | 73 |  | 
17 | CCCCCCc1c2c(nc3ccccc13)-c1cc(C(O)CCC3CCCCC3)c(C)c(=O)n1C2 (stereo not drawn) [8Aδ] | 72 | 89 |  | 
18 | CCCCCCc1c2c(nc3ccc(F)cc13)-c1cc(C(=O)CCC3CCCCC3)c(C)c(=O)n1C2 [8Bδκ] | 80 | 95 |  | 

Row | Compound | Residual activity (%) Polymerase [1] [%] | Residual activity (%) RNase H [2] [%] | Residual activity (%) Polymerase ([1]; 10 µM) | Residual activity (%) RNase H ([2]; 10 µM)
19 | COc1ccc2nc3c(c(-c4ccccc4)c2c1)Cn1c-3cc(C(O)C(C)(C)C)c(C)c1=O (stereo not drawn) [3Dβ] | 85 | 70 |  | 
20 | CCCCCCc1c2c(nc3ccc(OC)cc13)-c1cc(C(O)CCC3CCCCC3)c(C)c(=O)n1C2 (racemic) [8Dδ] | 81 | 63 |  | 
21 | Cc1ccc2nc3c(c(-c4ccccc4)c2c1)Cn1c-3cc(C(O)CCC2CCCCC2)c(C)c1=O (stereo not drawn) [3Cδ] | 74 | 93 |  | 
22 | CCCCCCc1c2c(nc3ccc(F)cc13)-c1cc(C(O)C(C)(C)C)c(C)c(=O)n1C2 (racemic) [8Bβ] | 50 | 97 |  | 
23 | Cc1c(C(O)Cc2ccccc2)cc2n(c1=O)Cc1c-2nc2ccccc2c1-c1ccccc1 (stereo not drawn) [3Aε] | 34 | 99 |  | 
24 | Cc1c(C(O)C(C)(C)C)cc2n(c1=O)Cc1c-2nc2ccccc2c1-c1ccccc1 (racemic) [3Aβ] | 54 | 95 |  | 
25 | CCCCCCc1c2c(nc3ccccc13)-c1cc(C(=O)Cc3ccccc3)c(C)c(=O)n1C2 [8Aεκ] | 59 | 92 |  | 
26 | Cc1c(C(=O)CCC2CCCCC2)cc2n(c1=O)Cc1c-2nc2ccc(F)cc2c1[Si](C)(C)C [5Bδκ] | 46 | 78 |  | 
27 | CCCCCCc1c2c(nc3ccc(C)cc13)-c1cc(C(=O)CCC3CCCCC3)c(C)c(=O)n1C2 [8Cδκ] | 79 | 95 |  | 
28 | COc1ccc2nc3c(c([Si](C)(C)C)c2c1)Cn1c-3cc(C(O)C(C)(C)C)c(C)c1=O (stereo not drawn) [5Dβ] | 76 | 102 |  | 
29 | Cc1ccc2nc3c(c(-c4ccccc4)c2c1)Cn1c-3cc(C(O)C(C)(C)C)c(C)c1=O (racemic) [3Cβ] | 70 | 84 |  | 
30 | CCCCCCc1c2c(nc3ccc(F)cc13)-c1cc(C(=O)C(C)(C)C)c(C)c(=O)n1C2 [8Bβκ] | 44 | 81 |  | 
31 | CCCCCCc1c2c(nc3ccccc13)-c1cc(C(O)CC)c(C)c(=O)n1C2 (racemic) [8Aα] | 42 | 83 |  | 
32 | CCCCCCc1c2c(nc3ccc(C)cc13)-c1cc(C(O)CC)c(C)c(=O)n1C2 (racemic) [8Cα] | 84 | 65 |  | 
33 | CCCCCCc1c2c(nc3ccc(OC)cc13)-c1cc(C(=O)CC)c(C)c(=O)n1C2 [8Dακ] |  |  | 90% and 51% | 88% and 84%
34 | CCC(=O)c1cc2n(c(=O)c1C)Cc1c-2nc2ccc(C)cc2c1-c1ccccc1 [3Cακ] | 71 | 99 |  | 
35 | Cc1c(C(O)C(C)(C)C)cc2n(c1=O)Cc1c-2nc2ccc(F)cc2c1[Si](C)(C)C (racemic) [5Bβ] | 74 | 102 |  | 
36 | CCC(O)c1cc2n(c(=O)c1C)Cc1c-2nc2ccc(C)cc2c1[Si](C)(C)C (stereo not drawn) [5Cα] | 68 | 62 |  | 
